The values below are quoted from earlier work in patent US8673587B2, “Methods for identifying allosteric and other novel acyl-coenzyme A:cholesterol acyltransferase inhibitors” (Trustees of Dartmouth College, priority 2010, dated 2014).

The structures appear in SMILES notation.

The test system of series [1] is lysohpospholipid acyltransferase (LPAT). The settings on record: cited from earlier work.
Series [2] deals with amyloid precursor protein (APP). The settings on record: animal models for AD; cited from earlier work.
The conditions of series [3]: fed to animals; cited from earlier work.

Take `CCCCCCCCCCC(C)(C)C(=O)Nc1c(OC)cc(OC)cc1OC` [CI976]: the “inhibition of LPAT” value in series [1] is recorded as “has been shown to inhibit”.

In the case of `CC(C)c1cc(C(C)C)c(CC(=O)NS(=O)(=O)Oc2c(C(C)C)cccc2C(C)C)c(C(C)C)c1` [CI1011], the “mature/immature ratio of human APP” value in series [2] is reported as “decreased”. The VLDL-triglyceride content entry in series [3] is given as “reduces the VLDL-triglyceride content”.
